Reference: PMC7475179, “Characterization of a caffeoyl-CoA O-methyltransferase-like enzyme involved in biosynthesis of polymethoxylated flavones in Citrus reticulata” (Journal of Experimental Botany, 2020)

Tested on: CrOMT1
Experiment: MTase-Glo methyltransferase assay (SAH luminescence), Michaelis-Menten fit
Assay type: biochemical, Citrus reticulata
Details: 2 mM SAM, 50 mM Tris-HCl pH 8.0, 37 °C, 30 min

Row | Compound | Km [µM] | further results
1 | O=C1C[C@@H](c2ccc(O)c(O)c2)Oc2cc(O)cc(O)c21 [eriodictyol] | 61.8 ± 9.9 | 
2 | C[C@@H]1O[C@@H](O[C@H]2[C@H](Oc3cc(O)c4c(c3)O[C@H](c3ccc(O)c(O)c3)CC4=O)O[C@H](CO)[C@@H](O)[C@@H]2O)[C@H](O)[C@H](O)[C@H]1O [neoeriocitrin, eriodictyol-7-O-neohesperidoside] | 8.7 ± 1 | 
3 | O=c1c(O)c(-c2ccc(O)cc2)oc2cc(O)cc(O)c12 [kaempferol] | 248 | 
4 | O=c1cc(-c2ccccc2)oc2c(O)c(O)ccc12 [7,8-dihydroxyflavone] |  | Km (8-O-methylation): 1.8 ± 0.4 µM
5 | O=c1cc(-c2ccc(O)c(O)c2)oc2cc(O)cc(O)c12 [luteolin, 5,7,3',4'-tetrahydroxyflavone] |  | Km (3'-O-methylation): 3.1 ± 0.6 µM
6 | O=c1c(O)c(-c2ccc(O)c(O)c2)oc2cc(O)cc(O)c12 [quercetin] | 4.5 ± 0.8 | 
7 | C[C@@H]1O[C@@H](OC[C@H]2O[C@@H](Oc3cc(O)c4c(c3)O[C@H](c3ccc(O)c(O)c3)CC4=O)[C@H](O)[C@@H](O)[C@@H]2O)[C@H](O)[C@H](O)[C@H]1O [eriocitrin, eriodictyol-7-O-rutinoside] | 7.9 ± 1 | 
8 | O=c1cc(-c2ccccc2)oc2cc(O)c(O)c(O)c12 [baicalein] |  | Km (6-O-methylation): 3.3 ± 0.6 µM
9 | O=c1cc(-c2cc(O)c(O)c(O)c2)oc2cc(O)cc(O)c12 [tricetin] | 0.6 | 
10 | COc1c(-c2ccc(O)c(O)c2)oc2cc(O)cc(O)c2c1=O [quercetin 3-methyl ether] | 3.9 ± 0.5 | 
11 | O=c1c(O)c(-c2cc(O)c(O)c(O)c2)oc2cc(O)cc(O)c12 [myricetin] | 23.8 ± 4.3 | 
